Test results: patent US20260000676A1, “CHROMAN DERIVATIVES AS ESTROGEN RECEPTOR DEGRADERS” (THE REGENTS OF THE UNIVERSITY OF MICHIGAN, priority 2022, published 2026)
Counter-ions that a name gives are not always drawn.

What was measured:
ER [1] = target: T1, ER (Homo sapiens (Human), UniProt P03372); test: In-cell western (ICW) ER degradation assay in T47D cells; type: cell-based; conditions: 16 hrs; for DC50: ER degradation
CRBN/DDB1 = CRBN/DDB1 (Homo sapiens (Human), UniProt Q96SW2); test: HTRF binding assay to CRBN/DDB1; conditions: read-out: CRBN HTRF IC50
Chain of CRBN/DDB1 (Q96SW2 whole entry): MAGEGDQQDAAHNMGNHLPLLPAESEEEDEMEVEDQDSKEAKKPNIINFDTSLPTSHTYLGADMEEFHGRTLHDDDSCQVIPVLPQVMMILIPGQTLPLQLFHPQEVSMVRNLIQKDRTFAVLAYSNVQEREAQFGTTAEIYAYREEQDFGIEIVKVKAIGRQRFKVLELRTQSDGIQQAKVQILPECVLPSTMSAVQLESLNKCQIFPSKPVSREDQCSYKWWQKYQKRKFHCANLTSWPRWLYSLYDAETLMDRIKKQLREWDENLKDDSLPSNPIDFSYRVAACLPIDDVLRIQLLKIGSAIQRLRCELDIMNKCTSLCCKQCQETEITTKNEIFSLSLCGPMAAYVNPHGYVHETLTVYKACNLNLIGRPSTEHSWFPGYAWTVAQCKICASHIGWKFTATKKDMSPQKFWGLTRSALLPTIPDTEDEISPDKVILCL
Chain of CRBN/DDB1 (Q16531 whole entry partner): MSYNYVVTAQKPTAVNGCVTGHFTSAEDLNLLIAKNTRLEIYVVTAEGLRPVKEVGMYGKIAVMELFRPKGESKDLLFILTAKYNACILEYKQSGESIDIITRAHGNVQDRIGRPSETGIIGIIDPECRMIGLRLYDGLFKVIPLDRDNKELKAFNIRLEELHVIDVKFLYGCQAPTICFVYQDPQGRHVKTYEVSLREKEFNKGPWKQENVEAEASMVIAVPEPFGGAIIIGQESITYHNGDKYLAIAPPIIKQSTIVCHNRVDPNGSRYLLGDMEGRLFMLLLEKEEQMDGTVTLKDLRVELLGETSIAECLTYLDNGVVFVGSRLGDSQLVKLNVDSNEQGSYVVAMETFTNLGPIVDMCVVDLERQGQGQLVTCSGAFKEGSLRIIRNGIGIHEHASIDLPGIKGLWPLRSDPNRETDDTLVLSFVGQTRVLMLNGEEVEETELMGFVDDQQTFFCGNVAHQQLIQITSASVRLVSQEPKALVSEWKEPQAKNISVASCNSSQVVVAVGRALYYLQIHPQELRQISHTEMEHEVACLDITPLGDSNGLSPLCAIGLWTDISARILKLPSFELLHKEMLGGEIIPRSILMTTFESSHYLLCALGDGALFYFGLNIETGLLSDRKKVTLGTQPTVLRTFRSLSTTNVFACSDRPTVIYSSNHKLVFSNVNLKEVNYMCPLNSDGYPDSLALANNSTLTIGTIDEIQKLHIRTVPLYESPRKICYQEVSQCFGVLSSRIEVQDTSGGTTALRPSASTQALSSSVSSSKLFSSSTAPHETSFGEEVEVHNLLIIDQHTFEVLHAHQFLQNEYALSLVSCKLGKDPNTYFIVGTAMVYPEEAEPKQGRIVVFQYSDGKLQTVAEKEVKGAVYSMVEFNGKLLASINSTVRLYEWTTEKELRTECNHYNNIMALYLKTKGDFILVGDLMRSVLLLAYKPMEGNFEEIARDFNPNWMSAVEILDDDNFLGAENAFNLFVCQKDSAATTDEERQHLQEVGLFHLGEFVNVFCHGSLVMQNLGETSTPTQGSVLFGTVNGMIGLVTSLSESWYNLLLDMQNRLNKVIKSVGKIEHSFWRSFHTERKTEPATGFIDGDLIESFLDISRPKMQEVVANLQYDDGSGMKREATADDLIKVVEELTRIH
Method: The binding potency was determined using HTRF assay technology (Perkin Elmer). Compounds were serially diluted in DMSO and 0.2 μL volume was transferred to white 384-well plate.

ER [2] = target: T1, ER; test: In-cell western (ICW) ER degradation assay in MCF-7 cells; type: cell-based; conditions: MCF7, 16 hrs; for DC50: ER degradation; for Dmax: MCF7, maximal ER degradation

T1 sequence (P03372 whole entry): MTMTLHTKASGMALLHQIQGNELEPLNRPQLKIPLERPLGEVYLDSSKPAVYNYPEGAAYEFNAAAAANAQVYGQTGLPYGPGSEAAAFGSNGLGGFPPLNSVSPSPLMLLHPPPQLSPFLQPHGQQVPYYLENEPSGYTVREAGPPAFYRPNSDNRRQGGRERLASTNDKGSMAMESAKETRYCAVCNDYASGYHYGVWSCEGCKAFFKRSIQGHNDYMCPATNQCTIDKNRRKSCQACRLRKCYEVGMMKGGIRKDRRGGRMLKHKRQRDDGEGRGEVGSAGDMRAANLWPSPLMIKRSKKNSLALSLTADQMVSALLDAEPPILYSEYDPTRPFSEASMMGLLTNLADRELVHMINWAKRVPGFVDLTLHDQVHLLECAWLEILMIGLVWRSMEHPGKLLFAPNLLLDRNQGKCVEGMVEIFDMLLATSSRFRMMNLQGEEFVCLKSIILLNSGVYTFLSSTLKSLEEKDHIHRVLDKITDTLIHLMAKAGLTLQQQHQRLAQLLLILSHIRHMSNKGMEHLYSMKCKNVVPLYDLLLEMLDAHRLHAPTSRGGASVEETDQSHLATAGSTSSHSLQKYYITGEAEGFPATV

Row | SMILES | DC50 (ER [1]) [nM] | Dmax (ER [1]; maximal ER degradation) [%] | IC50 (CRBN/DDB1) [nM] | DC50 (ER [2]) [nM] | Dmax (ER [2]) [%] | Dmax (ER [1]; maximal ER degradation, given as number) [%] | T47D Dmax % (ER [1]; maximal ER degradation) | MCF7 Dmax % (ER [2]; maximal ER degradation)
1 | O=C1CC[C@@H](N2Cc3c(ccc4c3OC[C@@H]3CN(C[C@H]5COC6(CCN(c7ccc([C@H]8c9ccc(O)cc9OC[C@H]8c8ccccc8)cc7)CC6)C5)CCN43)C2=O)C(=O)N1 [Compound A133, (R)-3-((S)-7-(((S)-8-(4-((3R,4S)-7-hydroxy-3-phenylchroman-4-yl)phenyl)-1-oxa-8-azaspiro[4.5]decan-3-yl)methyl)-1-oxo-1,3,5,5a,6,7,8,9-octahydro-2H-pyrazino[1′,2′:4,5][1,4]oxazino[2,3-e]isoindol-2-yl)piperidine-2,6-dione] | < 1 | 25 to 50 | < 50 | 1 to 10 | 25 to 50 |  |  | 
2 | O=C1CCC(N2C(=O)c3cc4c(cc3C2=O)CN(C(=O)CN2CCC3(CC2)CCN(c2ccc([C@H]5c6ccc(O)cc6OC[C@H]5c5ccccc5)cc2)CC3)C4)C(=O)N1 (single isomer, unassigned) [Compound A54, formate] | 1 to 10 | ≥ 75 | 500 to 5000 | 10 to 100 | 25 to 50 |  |  | 
3 | COc1cc(C(=O)N[C@@H]2CCC(=O)NC2=O)ncc1N1CCN(CC2CCC3(CC2)CN(c2ccc([C@H]4c5ccc(O)cc5OC[C@H]4c4ccccc4)cc2)C3)CC1 (single isomer, unassigned) [Compound A144] | > 100 | < 25 | 500 to 5000 | 10 to 100 | 25 to 50 |  |  | 
4 | COc1cc(N2CCC(CN3CCN4c5cc6c(cc5OC[C@H]4C3)C(=O)N(C3CCC(=O)NC3=O)C6)CC2)ccc1[C@H]1c2ccc(O)cc2OC[C@H]1c1ccccc1 (stereo partly drawn) [Compound A74, 3-((R)-3-((1-(4-((3R,4S)-7-hydroxy-3-phenylchroman-4-yl)-3-methoxyphenyl)piperidin-4-yl)methyl)-8-oxo-1,2,3,4,4a,5,8,10-octahydro-9H-pyrazino[1′,2′:4,5][1,4]oxazino[2,3-f]isoindol-9-yl)piperidine-2,6-dione] | 1 to 10 | 25 to 50 | 500 to 5000 | < 1 | < 25 |  |  | 
5 | COc1nc(C(=O)NC2CCC(=O)NC2=O)ccc1N1CCN(CC2CCC3(CC2)CN(c2ccc([C@@H]4c5ccc(O)cc5OC[C@@H]4c4ccccc4)cc2)C3)CC1 (single isomer, unassigned) [Compound A108] | < 1 | ≥ 75 | 500 to 5000 | 1 to 10 | 50 to 75 | 76.3 |  | 
6 | COc1cc(N2CCC3(CC2)CC(CN2CCC4(CC2)COc2c4ccc4c2CN(C2CCC(=O)NC2=O)C4=O)C3)c(F)cc1[C@H]1c2ccc(O)cc2OC[C@H]1c1ccccc1 (stereo partly drawn) [Compound A131, 3-(1′-((7-(2-fluoro-4-((3R,4R)-7-hydroxy-3-phenylchroman-4-yl)-5-methoxyphenyl)-7-azaspiro[3.5]nonan-2-yl)methyl)-6-oxo-6,8-dihydro-2H,7H-spiro[furo[2,3-e]isoindole-3,4′-piperidin]-7-yl)piperidine-2,6-dione] | 1 to 10 |  | < 50 | 1 to 10 |  |  | B (“B”: >50% and <75%) | B (“B”: >50% and <75%)
7 | COc1cc(N2CCC(CN3CCN(c4cnc(C(=O)NC5CCC(=O)NC5=O)cc4OC)CC3)CC2)ccc1[C@H]1c2ccc(O)cc2OC[C@H]1c1ccccc1 (single isomer, unassigned) [Compound A127] | < 1 | 25 to 50 | > 5000 | < 1 | 50 to 75 |  |  | 
8 | O=C1CCC(NC(=O)c2ccc3c(n2)OC[C@H]2CN(CC4CCN(c5ccc([C@@H]6c7ccc(O)cc7OC[C@@H]6c6ccccc6)cc5F)CC4)CCN32)C(=O)N1 (single isomer, unassigned) [Compound A104] | 1 to 10 | ≥ 75 | 500 to 5000 | 1 to 10 | ≥ 75 |  |  | 
9 | O=C1CCC(NC(=O)c2ccc(N3CCN(CC4CCN(c5ccc([C@H]6c7ccc(O)cc7OC[C@H]6c6ccccc6)cc5F)CC4)CC3)cn2)C(=O)N1 (single isomer, unassigned) [Compound A100] | 1 to 10 | 50 to 75 | > 5000 | 1 to 10 | 50 to 75 |  |  | 
